The values that follow come from patent US7683168B2, “Compositions of novel opioid compounds and method of use thereof” (priority 2005, dated 2010).

Molecules are shown by their SMILES.

For one data set, the target named is T1, human mu opioid receptor (Homo sapiens, UniProt P35372).
T1 construct: purchased Perkin Elmer, Boston, Mass; 6110535; host or cells: CHO cells
The data set can be described thus: radioligand binding, human mu opioid receptor, CHO cell membranes. The note with it: species not given, read-out: μ.

Data set [1] has as its system seizure-like convulsions in mice. Description: mouse seizure-like convulsions. The format is in vivo. On the procedure: Mouse Seizure-Like Convulsions and antinociception: The central (CNS) effects of the compound were tested with central delta receptor mediated seizure-like convulsions and central mu opioid receptor mediated antinociceptive effects in mice. Male CD-1 mice (Charles River, Raleigh, N.C.) weighing 20-25 g were used to determine the seizure-like convulsion and antinociception activities for compounds.
They were then observed for seizure-like convulsions for one hour following the treatment. A seizure-like event was recorded if a mouse had uncontrollable clonic (or tonic/clonic) muscle movements that encompassed its entire body, usually followed by a brief cataleptic period. Catalepsy was determined by placing the animal's front paws on a horizontal bar held 2-3 inches from the cage floor. Cataleptic animals made no attempt to remove their paws.

The next data set relates to mouse vas deferens. Description: electrically stimulated mouse vas deferens (MVD) ED50. The format is cell-based. The note with it: ED50, inhibition of electrically induced contractions.
The target in the next data set is T2, human delta receptor (Homo sapiens, UniProt P41143).
T2 construct: purchased Perkin Elmer, Boston, Mass; 6110549; host or cells: HEK-293 cells
Description: radioligand binding, human delta receptor, HEK-293 cell membranes. The note with it: cell not marked (rat), species not given, read-out: δ.

T2 sequence (P41143 whole entry): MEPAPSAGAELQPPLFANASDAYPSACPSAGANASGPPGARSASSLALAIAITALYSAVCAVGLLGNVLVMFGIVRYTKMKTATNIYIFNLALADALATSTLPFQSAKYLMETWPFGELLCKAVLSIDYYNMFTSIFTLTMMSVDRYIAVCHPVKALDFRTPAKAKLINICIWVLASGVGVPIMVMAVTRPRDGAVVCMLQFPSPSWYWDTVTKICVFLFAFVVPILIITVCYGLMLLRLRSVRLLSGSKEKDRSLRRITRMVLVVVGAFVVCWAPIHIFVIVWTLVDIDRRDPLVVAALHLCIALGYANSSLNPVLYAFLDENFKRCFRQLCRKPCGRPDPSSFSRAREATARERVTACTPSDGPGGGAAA
T1 sequence (P35372 whole entry): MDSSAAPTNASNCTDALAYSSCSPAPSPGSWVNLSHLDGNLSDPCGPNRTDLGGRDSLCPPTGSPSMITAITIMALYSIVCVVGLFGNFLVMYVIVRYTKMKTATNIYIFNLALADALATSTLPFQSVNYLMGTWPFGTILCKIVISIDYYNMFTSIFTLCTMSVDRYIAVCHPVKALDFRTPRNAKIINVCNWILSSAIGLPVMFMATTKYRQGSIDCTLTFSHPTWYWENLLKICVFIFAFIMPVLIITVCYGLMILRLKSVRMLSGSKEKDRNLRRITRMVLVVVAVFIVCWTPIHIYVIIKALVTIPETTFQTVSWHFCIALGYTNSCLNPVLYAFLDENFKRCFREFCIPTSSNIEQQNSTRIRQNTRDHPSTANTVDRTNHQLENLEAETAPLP

By EC50 is commonly meant the concentration at which the effect is half-maximal. A high value points to lower potency in that assay. Consider `C[C@@H]1CN([C@@H](c2cccc(O)c2)c2cccc(C(=O)N3CCN(CCCCC(=O)O)CC3)c2)[C@@H](C)CN1Cc1cccc(F)c1` [Example 88, 5-(4-{3-[(R)-((2S,5R)-4-(3-Fluorobenzyl)-2,5-dimethyl-piperazin-1-yl)-(3-hydroxy-phenyl)-methyl]-benzoyl}-piperazin-1-yl)-pentanoic acid], for which the Ki on human mu opioid receptor came to 211 nM; on human delta receptor it was 16.9 nM. Also, the Seiz. in data set [1] (10 mg/kg IV) was 0% 10 mg/kg IV. Further, the midpoint of the response in the data set on mouse vas deferens, the EC50, lay at 6.66 nM.

Take `C=CCN1C[C@H](C)N([C@@H](c2cccc(O)c2)c2cccc(C(=O)N3CCC(=CC(=O)O)CC3)c2)C[C@H]1C` [Example 138, (1-{3-[(R)-((2S,5R)-4-allyl-2,5-dimethyl-1-piperazinyl)(3-hydroxyphenyl)methyl]-benzoyl}-4-piperidinylidene)acetic acid]: the Ki on human mu opioid receptor was 7.4 nM; at human delta receptor it was 0.63 nM. The same molecule returned a Seiz. in data set [1] (10 mg/kg IV) of 0% 10 mg/kg IV. For the same molecule, it took 1.35 nM to reach a half-maximal effect in the data set with mouse vas deferens (EC50).

On to `C[C@@H]1CN(C(c2cccc(O)c2)c2cccc(C(=O)N3CCCN(CCCCC(=O)O)CC3)c2)[C@@H](C)CN1Cc1cccc(F)c1` (stereo partly drawn), for which the Ki at human mu opioid receptor was 34.8 nM; at human delta receptor it was 35.4 nM. Besides, the Seiz. in data set [1] (10 mg/kg IV) is recorded as 0% 10 mg/kg IV. Also, the half-maximal effective concentration (EC50) in the data set with mouse vas deferens amounted to 14.7 nM.

As to `C[C@@H]1CN(C(c2cccc(O)c2)c2cccc(C(=O)N3CCCN(CC(=O)O)CC3)c2)[C@@H](C)CN1CC1CC1` (stereo partly drawn), the Ki at human mu opioid receptor was 33.1 nM; on human delta receptor, 6.8 nM. Further, the Seiz. in data set [1] (20 mg/kg IV) was 0% 20 mg/kg IV. This molecule also displayed an EC50 with mouse vas deferens of 65.2 nM.

For `C[C@@H]1CN([C@@H](c2cccc(O)c2)c2cccc(C(=O)N3CCN(CCCC(=O)O)CC3)c2)[C@@H](C)CN1Cc1cccc(F)c1` [Example 82, 4-(4-{3-[(R)-((2S,5R)-4-(3-Fluorobenzyl)-2,5-dimethyl-piperazin-1-yl)-(3-hydroxy-phenyl)-methyl]-benzoyl}-piperazin-1-yl)-butyric acid], the Ki at human mu opioid receptor was 13.8 nM; at human delta receptor, 31.1 nM. This molecule also showed a Seiz. in data set [1] (10 mg/kg IV) of 0% 10 mg/kg IV. This molecule also returned an EC50 with mouse vas deferens of 2.65 nM.

As to `CCOC(=O)CCCN1CCCN(C(=O)c2cccc(C(c3cccc(O)c3)N3C[C@@H](C)N(Cc4ccccc4)C[C@@H]3C)c2)CC1` (stereo partly drawn), the Ki on human mu opioid receptor was 1.2 nM; on human delta receptor, 50.1 nM. Besides, the Seiz. in data set [1] (10 mg/kg IV) was 30% 10 mg/kg IV. The midpoint of the response in the data set on mouse vas deferens, the EC50, lay at 10.6 nM.

As for `C[C@@H]1CN([C@@H](c2cccc(O)c2)c2cccc(C(=O)N3CCN(CCCC(=O)O)CC3)c2)[C@@H](C)CN1CC1CC1` [Example 78, 4-(4-{3-[(R)-((2S,5R)-4-Cyclopropylmethyl-2,5-dimethyl-piperazin-1-yl)-(3-hydroxy-phenyl)-methyl]-benzoyl}-piperazin-1-yl)-butyric acid], the Ki at human mu opioid receptor is 194 nM; at human delta receptor, 10.2 nM. Further, in data set [1] (10 mg/kg IV), the Seiz. was found to be 0% 10 mg/kg IV. This molecule also gave a concentration giving a half-maximal response (EC50) in the data set on mouse vas deferens of 26.6 nM.

As for `C=CCN1C[C@H](C)N([C@@H](c2cccc(O)c2)c2cccc(C(=O)N3CCN(CC(=O)O)CC3)c2)C[C@H]1C` [Example 64, (4-{3-[(R)-((2S,5R)-4-Allyl-2,5-dimethyl-piperazin-1-yl)-(3-hydroxy-phenyl)-methyl]-benzoyl}-piperazin-1-yl)-acetic acid], the Ki at human mu opioid receptor worked out at 9 nM; on human delta receptor it was 0.79 nM. Further, the Seiz. in data set [1] (10 mg/kg IV) came to 30% 10 mg/kg IV. In the data set with mouse vas deferens, it took 5.18 nM to reach a half-maximal effect (EC50).

As to `C=CCN1C[C@H](C)N([C@@H](c2cccc(O)c2)c2cccc(C(=O)N3CCN(CCC(=O)O)CC3)c2)C[C@H]1C` [Example 73, 3-(4-{3-[(R)-((2S,5R)-4-Allyl-2,5-dimethyl-piperazin-1-yl)-(3-hydroxy-phenyl)-methyl]-benzoyl}-piperazin-1-yl)-propionic acid], the Ki is 17.1 nM at human mu opioid receptor and 2.6 nM on human delta receptor. Besides, in data set [1] (10 mg/kg IV), the Seiz. stood at 0% 10 mg/kg IV. In the data set on mouse vas deferens, the response was half-maximal at 2.28 nM (EC50).
